Source: ChEMBL document CHEMBL2406999, “Vialinin A is a ubiquitin-specific peptidase inhibitor” (Bioorg Med Chem Lett, 2013)
Active and inactive are the calls of the source. The calls are words filed in the database; no cut-off is given here.

Tests used:
[1] = target: Calpain1/2 (Homo sapiens) (UniProt P17655+P07384); experiment: Inhibition of calpain1/2 (unknown origin) using Suc-LLVY-AMC as substrate at 6.3 uM after 20 mins by fluorometric analysis; format: protein assay
[2] = target: T1, Ubiquitin carboxyl-terminal hydrolase 2 (Homo sapiens) (UniProt O75604); experiment: Inhibition of human USP2 using Ub-AMC as substrate at 1 to 30 uM after 60 mins by fluorometric analysis
T1 sequence (whole entry): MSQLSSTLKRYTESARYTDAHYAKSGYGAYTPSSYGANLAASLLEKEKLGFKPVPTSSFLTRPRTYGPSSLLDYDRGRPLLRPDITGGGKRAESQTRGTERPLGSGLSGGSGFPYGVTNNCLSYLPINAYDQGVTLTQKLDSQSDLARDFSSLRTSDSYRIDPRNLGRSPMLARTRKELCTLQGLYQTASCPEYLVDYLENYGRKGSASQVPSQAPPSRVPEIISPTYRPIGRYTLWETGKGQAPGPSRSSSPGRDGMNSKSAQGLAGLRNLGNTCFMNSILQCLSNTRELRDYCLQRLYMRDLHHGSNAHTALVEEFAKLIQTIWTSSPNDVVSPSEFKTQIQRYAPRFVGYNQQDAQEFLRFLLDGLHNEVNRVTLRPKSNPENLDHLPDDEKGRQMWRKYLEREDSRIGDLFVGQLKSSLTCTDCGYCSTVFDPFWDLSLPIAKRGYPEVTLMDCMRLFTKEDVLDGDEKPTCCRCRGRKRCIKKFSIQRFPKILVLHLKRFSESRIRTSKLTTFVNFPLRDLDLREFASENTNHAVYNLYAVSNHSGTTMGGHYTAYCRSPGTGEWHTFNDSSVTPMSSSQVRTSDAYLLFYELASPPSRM

[3] = target: T2, Ubiquitin carboxyl-terminal hydrolase 4 (Homo sapiens, UniProt Q13107); experiment: Inhibition of human USP4 using Ub-AMC as substrate after 60 mins by fluorometric analysis
T2 sequence (Q13107 whole entry): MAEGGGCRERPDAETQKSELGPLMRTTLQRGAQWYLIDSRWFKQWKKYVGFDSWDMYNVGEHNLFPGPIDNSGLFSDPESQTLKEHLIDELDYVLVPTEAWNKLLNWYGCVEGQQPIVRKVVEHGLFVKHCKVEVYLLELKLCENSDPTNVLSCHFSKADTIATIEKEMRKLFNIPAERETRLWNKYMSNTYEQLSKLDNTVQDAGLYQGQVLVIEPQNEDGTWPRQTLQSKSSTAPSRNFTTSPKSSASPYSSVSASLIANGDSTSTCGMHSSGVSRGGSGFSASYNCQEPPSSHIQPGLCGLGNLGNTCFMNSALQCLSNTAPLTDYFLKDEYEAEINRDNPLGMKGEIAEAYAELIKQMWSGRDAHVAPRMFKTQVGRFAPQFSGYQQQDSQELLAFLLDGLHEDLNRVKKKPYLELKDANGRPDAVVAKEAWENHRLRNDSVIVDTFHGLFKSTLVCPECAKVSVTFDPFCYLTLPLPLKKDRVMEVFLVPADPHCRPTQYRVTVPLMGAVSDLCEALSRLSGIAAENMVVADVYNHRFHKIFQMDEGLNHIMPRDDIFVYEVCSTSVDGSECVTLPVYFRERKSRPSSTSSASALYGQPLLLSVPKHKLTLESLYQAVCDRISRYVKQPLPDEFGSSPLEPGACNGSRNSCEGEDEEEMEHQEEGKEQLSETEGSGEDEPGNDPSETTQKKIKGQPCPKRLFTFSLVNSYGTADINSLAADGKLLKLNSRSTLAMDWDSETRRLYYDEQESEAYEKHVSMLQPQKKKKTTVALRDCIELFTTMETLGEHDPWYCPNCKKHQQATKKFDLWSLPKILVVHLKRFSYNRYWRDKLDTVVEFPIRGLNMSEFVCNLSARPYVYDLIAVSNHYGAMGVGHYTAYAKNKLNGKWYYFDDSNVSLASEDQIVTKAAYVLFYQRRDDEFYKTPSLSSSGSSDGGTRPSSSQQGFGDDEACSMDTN

[4] = target: T3, Ubiquitin carboxyl-terminal hydrolase 5 (Homo sapiens, UniProt P45974); experiment: Inhibition of wild type human USP5 expressed in Escherichia coli BL21(DE3) using Ub-AMC as substrate after 60 mins by fluorometric analysis
T3 sequence (P45974 whole entry): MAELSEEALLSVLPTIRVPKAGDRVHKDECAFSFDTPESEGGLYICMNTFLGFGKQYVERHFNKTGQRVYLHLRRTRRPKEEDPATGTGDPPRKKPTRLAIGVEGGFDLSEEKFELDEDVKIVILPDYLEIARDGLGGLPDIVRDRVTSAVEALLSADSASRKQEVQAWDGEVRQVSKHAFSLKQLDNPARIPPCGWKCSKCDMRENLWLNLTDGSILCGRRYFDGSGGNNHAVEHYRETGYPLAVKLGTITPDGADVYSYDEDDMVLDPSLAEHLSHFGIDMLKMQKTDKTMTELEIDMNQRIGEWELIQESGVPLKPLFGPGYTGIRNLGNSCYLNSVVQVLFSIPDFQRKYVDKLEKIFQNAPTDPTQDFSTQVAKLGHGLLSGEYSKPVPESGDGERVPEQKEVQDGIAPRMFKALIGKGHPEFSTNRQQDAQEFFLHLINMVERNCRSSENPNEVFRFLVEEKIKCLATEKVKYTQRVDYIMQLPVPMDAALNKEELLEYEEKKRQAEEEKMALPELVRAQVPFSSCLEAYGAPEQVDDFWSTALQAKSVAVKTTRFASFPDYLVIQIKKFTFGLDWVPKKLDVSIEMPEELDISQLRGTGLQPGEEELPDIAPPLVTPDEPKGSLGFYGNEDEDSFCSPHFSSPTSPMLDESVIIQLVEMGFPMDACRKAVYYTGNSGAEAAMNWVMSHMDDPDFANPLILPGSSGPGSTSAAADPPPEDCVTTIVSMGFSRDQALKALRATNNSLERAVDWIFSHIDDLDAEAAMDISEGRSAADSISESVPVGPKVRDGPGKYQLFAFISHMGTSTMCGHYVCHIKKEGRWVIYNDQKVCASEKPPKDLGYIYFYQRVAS

[5] = target: T4, Ubiquitin carboxyl-terminal hydrolase 5 (Homo sapiens) (UniProt P45974); experiment: Inhibition of wild type human USP5 expressed in Escherichia coli BL21(DE3) using K48-linked tetraubiquitin as substrate assessed as substrate hydrolysis at 10 uM after 15 mins by SDS-PAGE analysis
T4 sequence (whole entry): T3 sequence (P45974 whole entry)

[6] = test system: RBL-2H3; experiment: Binding affinity to USP5 in rat RBL2H3 cell extracts at 10 to 40 uM by SDS-PAGE analysis

Calpain1/2 (Homo sapiens), sequence (P07384 whole entry, looked up): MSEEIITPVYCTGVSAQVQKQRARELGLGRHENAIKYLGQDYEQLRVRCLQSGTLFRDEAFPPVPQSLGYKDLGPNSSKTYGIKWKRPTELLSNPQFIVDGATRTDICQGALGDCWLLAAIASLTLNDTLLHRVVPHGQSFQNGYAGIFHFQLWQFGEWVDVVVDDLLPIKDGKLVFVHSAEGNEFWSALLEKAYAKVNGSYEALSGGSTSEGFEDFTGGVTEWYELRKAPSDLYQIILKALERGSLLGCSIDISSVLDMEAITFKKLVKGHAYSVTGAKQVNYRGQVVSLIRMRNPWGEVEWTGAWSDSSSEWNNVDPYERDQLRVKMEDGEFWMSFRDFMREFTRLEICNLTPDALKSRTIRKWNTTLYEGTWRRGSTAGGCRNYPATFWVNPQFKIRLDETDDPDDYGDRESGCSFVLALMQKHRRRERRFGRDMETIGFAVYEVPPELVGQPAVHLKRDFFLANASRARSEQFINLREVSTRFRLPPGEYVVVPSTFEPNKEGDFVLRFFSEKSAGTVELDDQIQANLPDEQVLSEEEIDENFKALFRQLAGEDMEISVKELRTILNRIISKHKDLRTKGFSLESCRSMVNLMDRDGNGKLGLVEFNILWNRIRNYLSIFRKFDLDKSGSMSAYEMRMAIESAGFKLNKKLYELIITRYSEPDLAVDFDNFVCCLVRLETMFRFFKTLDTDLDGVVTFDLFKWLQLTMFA
Calpain1/2 (Homo sapiens), sequence (P17655 whole entry, looked up): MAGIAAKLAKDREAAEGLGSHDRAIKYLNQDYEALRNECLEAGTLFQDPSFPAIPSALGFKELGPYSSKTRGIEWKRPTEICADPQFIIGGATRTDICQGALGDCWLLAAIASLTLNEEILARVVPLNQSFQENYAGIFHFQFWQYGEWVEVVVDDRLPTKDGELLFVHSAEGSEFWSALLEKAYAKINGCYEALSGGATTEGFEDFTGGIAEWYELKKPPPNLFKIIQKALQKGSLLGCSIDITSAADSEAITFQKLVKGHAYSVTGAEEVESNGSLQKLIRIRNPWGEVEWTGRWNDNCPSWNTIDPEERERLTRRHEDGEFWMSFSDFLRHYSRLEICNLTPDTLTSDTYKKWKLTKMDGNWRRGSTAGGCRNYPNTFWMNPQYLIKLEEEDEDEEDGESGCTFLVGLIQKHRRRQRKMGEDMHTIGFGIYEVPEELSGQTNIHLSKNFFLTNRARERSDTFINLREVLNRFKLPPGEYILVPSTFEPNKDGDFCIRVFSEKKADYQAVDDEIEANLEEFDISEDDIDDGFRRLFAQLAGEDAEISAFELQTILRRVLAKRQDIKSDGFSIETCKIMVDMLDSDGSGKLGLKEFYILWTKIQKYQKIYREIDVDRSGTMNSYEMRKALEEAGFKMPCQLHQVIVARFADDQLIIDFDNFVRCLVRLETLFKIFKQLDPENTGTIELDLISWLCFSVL

SMILES: O=C(Cc1ccccc1)Oc1c(OC(=O)Cc2ccccc2)c(-c2ccc(O)cc2)c(O)c(O)c1-c1ccc(O)cc1 [VIALININ A]
- inhibition [1]: inactive
- inhibition [2]: inactive
- IC50 [3]: 1.5 µM
- IC50 [4]: 5.9 µM
- Ki [4]: 4 µM
- inhibition [5]: Active
- Activity [6]: inactive
